Data from PMC6100512, “In-Vitro Activity of Silybin and Related Flavonolignans against Leishmania infantum and L. donovani” (Molecules : A Journal of Synthetic Chemistry and Natural …, 2018).
Values belong to the compound of their own block, whether it stands above or below them.

Experiments:
[1] = system: intracellular amastigotes of Li BCN150; assay: Activity against intracellular amastigotes ex vivo in mouse peritoneal Mφ; assay type: cell-based, Leishmania infantum; details: 24 h
Experimental: Antiproliferative activity of flavonolignans against intracellular amastigotes was determined ex vivo using mouse peritoneal Mφ. Infections were carried out following the method and modifications described by us. Briefly, Mφ were seeded onto 8-well cell culture slides (SLP, Lifesciences Co., Pocheon, Korea) in a final volume of 400 µL (2.5 × 10^4 Mφ/well). Plates were incubated overnight at 37 °C under humidified 5% CO2/95% air atmosphere to facilitate adherence. Stationary-phase promastigotes of Ld and Li were centrifuged (370× g, 10 min) without break in a Ficoll (Sigma, Saint Louis, MO, USA) gradient (0%, 10% in Medium 199 and 30% in sterile phosphate-buffered saline). Metacyclic promastigotes, located in the 10–30% Ficoll interphase, were recovered, washed and opsonized in 15% normal mouse serum in 1:1 solution of RPMI and HBSS medium (Gibco, Life Technologies, Paisley, UK), 0.15 mM CaCl2 and 1 mM MgCl2 at 37 °C, 5% CO2 atmosphere for 30 min. Purified metacyclic promastigotes were added to the Mφ cultures using a ratio 4:1 (promastigotes:Mφ) for Li and 10:1 for Ld. Plates were incubated at 33 °C overnight as above. Noninternalized promastigotes were eliminated by repeated washing with fresh medium. Treatments (10 µM) were added to the cultures and kept for 24 h. Slides were methanol-fixed and stained with May–Grünwald Giemsa (Merck) to determine the % of infection and the number of amastigotes/100 Mφ under microscope. Cultures untreated, treated with 0.05% DMSO and treated with 0.1 µM AmB were included as controls. Experiments were done in triplicate and the activity was expressed as % of inhibition compared to untreated cultures.

[2] = system: Ld promastigotes; assay: Multiplication of Ld promastigotes in vitro (CellTiter-Glo, 24 h); assay type: cell-based, L. donovani; details: Leishmania donovani; for inhibition of growth at 120 µM: compared to untreated cultures, mean ± SD, read-out: Reduction (%) of multiplication, L. donovani promastigotes
Experimental: (§1) Growth was estimated by the addition of CellTiter-Glo® (Promega, Madison, WI, USA) (1:1) in 96-well microtiter white plates (Costar, Corning). After 10 min incubation (light protected, room temperature), luminescence was determined with FLUOstar Omega (BMG Labtech) reader. Sensitivity of Ld was similarly performed with promastigotes exposed to 120 μM. Control cultures (medium, untreated promastigotes, promastigotes treated with 0.2 μM AmB) were included. Experiment was carried out in triplicate and results expressed as % of inhibition of untreated control. Approximate IC50 values of the flavonolignans showing the highest inhibitory activity against Li mid-log-phase promastigotes were determined using dose-response curves. […] The compound with the highest activity, DhiS-A, was assayed against Ld promastigotes using the latter dilution series and the same culture conditions as above. For comparative purposes, mid-log promastigotes of Li and Ld were exposed to established anti-Leishmania agents: AmB (0.0078 μ[…] and 1.0 μM); […]

[3] = system: Li promastigotes; assay: Drug combination with DhiS-A, Chou-Talalay method (CalcuSyn); assay type: cell-based, Leishmania infantum; details: for Dose Required of Dn in combination with DhiS-A: computer-simulated; for DRI of Dn in combination with DhiS-A: fold dose reduction vs single agent; for Type of interaction with DhiS-A: Li promastigotes, fixed ratios AmB 0.01:15, Sb^III 1:1, PMM 5:1 (Dn:DhiS-A)
Experimental: Fixed-combination ratios of drugs were based on the IC50 values determined for the individual molecules. Mid-log-phase promastigotes of Li were exposed for 24 h at constant ratios of 0.01:15 (AmB:DhiS-A), 1:1 (Sb^III:DhiS-A) and 5:1 (PMM:DhiS-A). Dose–response curves of the combinations were analyzed with the Chou–Talalay method, based on the theorem of combination index (CI)-isobologram and CalcuSyn software. This method allows the evaluation of the type of interaction between two molecules according to mass action law. Results can be used to determine quantitatively the synergy (CI < 1), additive effect (CI = 1) or antagonism (CI > 1) of combinations. Moreover, the program allows the calculation of the drug reduction index (DRI): dose reduction in drug combinations to reach a given inhibition compared to the activity of the individual drugs.

[4] = system: Li UCM9 promastigotes; assay: Multiplication of Li promastigotes in vitro (CellTiter-Glo, 24 h); assay type: cell-based, Leishmania infantum; details: Leishmania infantum; for inhibition of growth at 120 µM: compared to untreated cultures, mean ± SD, read-out: Reduction (%) of multiplication, L infantum promastigotes
Experimental: as §1

[5] = system: BALB/c mouse peritoneal macrophages, Mφ; assay: Toxicity of flavonolignans for macrophages (CellTiter-Glo); assay type: cell-based; details: Peritoneal macrophage, 24 h, 28.125 to 900 µM, approximate
Experimental: Toxicity of flavonolignans for mammalian cells was determined using mouse peritoneal Mφ. Cells obtained were counted and seeded onto 96-well cultures plates (Costar, Corning) at a final concentration of 5 × 10^4 Mφ/well (100 µL/well). Plates were incubated overnight at 37 °C and humidified 5% CO2/95% air to facilitate adherence. Cells were cultured as above for 24 h with different concentrations of the flavonolignans (28.125 µM, 56.25 µM, 112.5 µM, 225 µM, 450 µM and 900 µM). After incubation, cell viability was determined with CellTiter-Glo® as previously described. Untreated and 300 µM AmB-treated control wells were included. Experiments were done in triplicate and approximate IC50 determined.

[6] = ED50 (50% growth inhibition), constant ratio Dn:DhiS-A (AmB 0.01:15; Sb^III 1:1; PMM 5:1)
[7] = ED75 (75% growth inhibition), constant ratio Dn:DhiS-A (AmB 0.01:15; Sb^III 1:1; PMM 5:1)
[8] = ED90 (90% growth inhibition), constant ratio Dn:DhiS-A (AmB 0.01:15; Sb^III 1:1; PMM 5:1)

- IC50 ([2]; approximate, dose-response curve): ~60 nM
Structure (SMILES): C[C@@H]1[C@H](O)[C@@H](C)/C=C/C=C/C=C/C=C/C=C/C=C/C=C/[C@H](O[C@@H]2O[C@H](C)[C@@H](O)[C@H](N)[C@@H]2O)C[C@@H]2O[C@](O)(C[C@@H](O)C[C@@H](O)[C@H](O)CC[C@@H](O)C[C@@H](O)CC(=O)O[C@H]1C)C[C@H](O)[C@H]2C(=O)O [AmB, amphotericin B]
- Reduction of the number of Mφ infected, Li ([1]; 0.1 µM): 50.0 ± 6.93%
- Reduction of the number of amastigotes/100 Mφ, Li ([1]; 0.1 µM): 57.63 ± 11.47%
- CI value of combination Dn + DhiS-A ([3]; ED10 (10% growth inhibition), constant ratio Dn:DhiS-A (AmB 0.01:15)): 1.49 (antagonism)
- Dose Required of Dn in combination with DhiS-A ([3]; ED10): 0.023 µM
- DRI of Dn in combination with DhiS-A ([3]; ED10): 2.85
- CI value of combination Dn + DhiS-A ([3]; ED25 (25% growth inhibition), constant ratio Dn:DhiS-A (AmB 0.01:15)): 1.24 (moderate antagonism)
- Dose Required of Dn in combination with DhiS-A ([3]; ED25): 0.030 µM
- DRI of Dn in combination with DhiS-A ([3]; ED25): 2.74
- CI value of combination Dn + DhiS-A [3, 6]: 1.06 (additive effect)
- Dose Required of Dn in combination with DhiS-A ([3]; ED50): 0.038 µM
- DRI of Dn in combination with DhiS-A ([3]; ED50): 2.64
- CI value of combination Dn + DhiS-A [3, 7]: 0.92 (additive effect)
- Dose Required of Dn in combination with DhiS-A ([3]; ED75): 0.048 µM
- DRI of Dn in combination with DhiS-A ([3]; ED75): 2.54
- CI value of combination Dn + DhiS-A [3, 8]: 0.81 (moderate synergism)
- Dose Required of Dn in combination with DhiS-A ([3]; ED90): 0.062 µM
- DRI of Dn in combination with DhiS-A ([3]; ED90): 2.39
- Dose Required of Dn in combination with DhiS-A ([3]; ED95): 0.074 µM
- Type of interaction with DhiS-A [3]: moderate synergism
- IC50 ([4]; approximate, dose-response curve, 24 h): ~60 nM

Structure (SMILES): COc1cc([C@@H]2Oc3cc([C@H]4Oc5cc(O)cc(O)c5C(=O)[C@@H]4O)ccc3O[C@H]2CO)ccc1O [Silybin B, silybin B]
- inhibition of growth at 120 µM [2]: 30.9 ± 5.02%
- inhibition of growth at 120 µM ([4]; 24 h): -3.82 ± 9.11%

Structure (SMILES): COc1cc([C@H]2Oc3cc([C@H]4Oc5cc(O)cc(O)c5C(=O)[C@@H]4O)ccc3O[C@@H]2CO)ccc1O [Silybin A, silybin A]
- inhibition of growth at 120 µM [2]: 14.2 ± 7.6%
- inhibition of growth at 120 µM ([4]; 24 h): -3.18 ± 9.09%

Structure (SMILES): COc1cc([C@H]2Oc3cc(-c4oc5cc(O)cc(O)c5c(=O)c4O)ccc3O[C@@H]2CO)ccc1O [Dehydrosilybin A, dehydrosilybin A]
- Reduction of Mφ infection, Li ([1]; 10 µM): 40.13 ± 12.6%
- Reduction of intracellular amastigotes, Li ([1]; 10 µM): over 50%
- inhibition of growth at 120 µM [2]: -38.7 ± 5.41%
- inhibition of growth at 120 µM ([4]; 24 h): 10.2 ± 6.97%
- IC50 [5]: ~60000 nM

Structure (SMILES): NC[C@@H]1O[C@H](O[C@H]2[C@@H](O)[C@H](O[C@@H]3[C@@H](O)[C@H](N)C[C@H](N)[C@H]3O[C@H]3O[C@H](CO)[C@@H](O)[C@H](O)[C@H]3N)O[C@@H]2CO)[C@H](N)[C@@H](O)[C@@H]1O [PMM, paromomycin sulphate]
- CI value of combination Dn + DhiS-A [3, 6]: 1.98 (antagonism)
- Dose Required of Dn in combination with DhiS-A ([3]; ED50): 822 µM
- DRI of Dn in combination with DhiS-A ([3]; ED50): 39.54
- CI value of combination Dn + DhiS-A [3, 7]: 1.65 (antagonism)
- Dose Required of Dn in combination with DhiS-A ([3]; ED75): 1145 µM
- DRI of Dn in combination with DhiS-A ([3]; ED75): 182.9
- CI value of combination Dn + DhiS-A [3, 8]: 1.38 (moderate antagonism)
- Dose Required of Dn in combination with DhiS-A ([3]; ED90): 1594 µM
- DRI of Dn in combination with DhiS-A ([3]; ED90): 845.2
- CI value of combination Dn + DhiS-A ([3]; ED95 (95% growth inhibition), constant ratio Dn:DhiS-A (AmB 0.01:15; Sb^III 1:1; PMM 5:1)): 1.23 (moderate antagonism)
- Dose Required of Dn in combination with DhiS-A ([3]; ED95): 1997 µM
- DRI of Dn in combination with DhiS-A ([3]; ED95): 2393
- Type of interaction with DhiS-A [3]: antagonists

Structure (SMILES): COc1cc(C2C3C=C(c4oc5cc(O)cc(O)c5c(=O)c4O)C4C2COC4(O)C3=O)ccc1O (stereo not shown) [Dehydrosilydianin, dehydrosilydianin]
- inhibition of growth at 120 µM [2]: 29.8 ± 2.17%
- inhibition of growth at 120 µM ([4]; 24 h): 42.2 ± 5.42%
- Emax ([4]; exploratory screening, 0.94 µM up to 120 µM, read-out: Maximal effect (inhibition of growth of control cultures) on Li promastigotes): < 50%
